Test results as given in paper PMC2248166, “Quantitative peptide binding motifs for 19 human and mouse MHC class I molecules derived using positional scanning combinatorial peptide libraries” (Immunome Research, 2008).

Columns and labels:
HLA A*3001 = HLA A*3001 (Homo sapiens, UniProt P04439, D140H/D185E/E176W/F33S/G80R/H175R/K168Q/R138E/R41S); test: biochemical; type: binding
HLA A*3201 = HLA A*3201 (Homo sapiens, UniProt P04439, A270S/D101S/D185E/E176V/E277Q/F133L/G103R/G107R/G231S/H175R/I121M/I218V/I322F/K168Q/L105A/L300P/L318F/M331R/P208A/P217A/Q94H/R106L/R138Q/S129P/T104I/T323A/T345S/V100E/V321M/V358M); test: biochemical; type: binding
HLA A*6802 = HLA A*6802 (Homo sapiens, UniProt P04439, A269V/D140Y/D185E/E176V/E277Q/E87N/F33Y/G231S/I121R/I166T/I218V/L180W/L300P/L318F/N151K/P208A/P217A/Q86R/R138H/R169H/S129P/T345S/V36M); type: binding
HLA B*0702 = HLA B*0702 (Homo sapiens, UniProt P01889); type: binding; details: positional scanning combinatorial 9-mer library; normalized to 1.0 for the best residue at each position
HLA B*0801 = HLA B*0801 (Homo sapiens, UniProt P01889, A93T/A95T/D138N/E176V/E187T/K202T/Q94N/R180D/S35A/V36M/Y33D/Y91F); test: biochemical; type: binding
HLA B*1501 = HLA B*1501 (Homo sapiens, UniProt P01889, A329T/A93T/A95T/C349S/D201E/D98Y/E187L/E204Q/E69M/E70A/K202T/N87E/Q94N/R155S/R180W/S121R/S35A/S48A/V306I/V36M/Y140S/Y91S); test: biochemical; type: binding
HLA B*1503 = HLA B*1503 (Homo sapiens, UniProt P01889, A329T/A93T/A95T/C349S/D201E/D98Y/E187L/E204Q/K202T/N87E/Q94N/R155S/R180L/S121R/S35A/V306I/V36M/Y140S/Y91S); test: biochemical; type: binding
HLA B*2705 = HLA B*2705 (Homo sapiens, UniProt P01889, D138H/D201E/E176V/E204Q/G107R/H137Y/K202T/N104T/N87E/Q56L/Q94K/R106L/R155S/R180L/S101D/S121N/S48T/Y140D/Y33H/Y91C); type: binding; details: positional scanning combinatorial 9-mer library; normalized to 1.0 for the best residue at each position
HLA B*3501 = HLA B*3501 (Homo sapiens, UniProt P01889, A329T/A93T/A95T/C349S/D201E/D98Y/E176V/E187L/E204Q/E69T/I218V/K202T/L119I/Q94N/R155S/R180L/S121R/S35A/S48A/T118I/V127L/V306I/V36M/Y140S/Y91F); type: binding
HLA B*5101 = HLA B*5101 (Homo sapiens, UniProt P01889, A329T/A93T/A95T/C349S/D138N/D201E/D98Y/E187L/E204Q/E69T/G107R/I218V/K202T/L105A/L119W/N104I/Q94N/R106L/R155S/R180L/S101N/S121T/S35A/S48A/V306I/V36M/Y195H/Y91F); type: binding
HLA B*5301 = HLA B*5301 (Homo sapiens, UniProt P01889, A329T/A93T/A95T/C349S/D201E/D98Y/E176V/E187L/E204Q/E69T/G107R/I218V/K202T/L105A/L119I/N104I/Q94N/R106L/R155S/R180L/S101N/S121R/S35A/S48A/T118I/V127L/V306I/V36M/Y140S/Y91F); type: binding
HLA B*5401 = HLA B*5401 (Homo sapiens, UniProt P01889, A329T/C349S/D138N/D201E/E176V/E187T/E204Q/E69G/I76V/K202T/L119W/R155S/R180L/S121T/S35A/S48A/V127L/V306I/V36M/Y140L); type: binding
HLA B*5801 = HLA B*5801 (Homo sapiens, UniProt P01889, A329T/C349S/D201E/D98Y/E176V/E187L/E204Q/E69T/G107R/I218V/I90N/K202T/L105A/L119I/N104I/N87E/Q89R/Q94S/R106L/R155S/R180L/R86G/S101N/S121R/S35A/S48A/T118I/V127L/V306I/V36M/Y140S/Y91M); type: binding
HLA B*5802 = HLA B*5802 (Homo sapiens, UniProt P01889, A329T/C349S/D201E/D98Y/E176V/E187L/E204Q/E69T/G107R/I218V/I90N/K202T/L105A/N104I/N87E/Q89R/Q94S/R106L/R155S/R180L/R86G/S101N/S121W/S35A/S48A/V127L/V306I/V36M/Y140S/Y91M); type: binding
H-2 D^b = H-2 D^b (Mus musculus, UniProt P01899); type: binding
H-2 D^b, sequence (P01887 21-119): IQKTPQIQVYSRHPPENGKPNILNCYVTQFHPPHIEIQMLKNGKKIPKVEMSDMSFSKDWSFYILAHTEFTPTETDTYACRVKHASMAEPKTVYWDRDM
H-2 D^b, sequence (P01899 25-362): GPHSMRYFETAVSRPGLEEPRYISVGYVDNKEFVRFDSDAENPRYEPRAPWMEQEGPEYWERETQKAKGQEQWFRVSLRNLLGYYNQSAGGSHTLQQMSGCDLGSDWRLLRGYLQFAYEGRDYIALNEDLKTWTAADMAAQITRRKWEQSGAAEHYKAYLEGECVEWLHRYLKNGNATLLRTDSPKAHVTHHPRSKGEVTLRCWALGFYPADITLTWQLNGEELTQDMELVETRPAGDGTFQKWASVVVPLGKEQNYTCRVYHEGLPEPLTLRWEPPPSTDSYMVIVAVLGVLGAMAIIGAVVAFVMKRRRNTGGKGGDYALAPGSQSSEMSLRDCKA

H-2 D^d = H-2 D^d (Mus musculus, UniProt P01900); type: binding
H-2 D^d, sequence (P01900 whole entry, looked up): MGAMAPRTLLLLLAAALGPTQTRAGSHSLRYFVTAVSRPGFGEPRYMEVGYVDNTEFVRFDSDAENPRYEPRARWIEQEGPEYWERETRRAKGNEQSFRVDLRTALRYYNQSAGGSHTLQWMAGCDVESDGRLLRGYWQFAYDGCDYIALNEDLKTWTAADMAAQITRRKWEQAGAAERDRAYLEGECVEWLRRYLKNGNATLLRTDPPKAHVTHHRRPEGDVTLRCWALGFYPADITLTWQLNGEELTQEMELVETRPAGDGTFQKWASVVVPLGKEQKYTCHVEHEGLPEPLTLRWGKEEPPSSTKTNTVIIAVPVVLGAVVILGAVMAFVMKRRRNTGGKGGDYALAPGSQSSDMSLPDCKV

H-2 K^k = H-2 K^k (Mus musculus, UniProt P04223); type: binding
H-2 K^k, sequence (P01887 21-119): as the sequence (P01887 21-119) above
H-2 K^k, sequence (P04223 22-369): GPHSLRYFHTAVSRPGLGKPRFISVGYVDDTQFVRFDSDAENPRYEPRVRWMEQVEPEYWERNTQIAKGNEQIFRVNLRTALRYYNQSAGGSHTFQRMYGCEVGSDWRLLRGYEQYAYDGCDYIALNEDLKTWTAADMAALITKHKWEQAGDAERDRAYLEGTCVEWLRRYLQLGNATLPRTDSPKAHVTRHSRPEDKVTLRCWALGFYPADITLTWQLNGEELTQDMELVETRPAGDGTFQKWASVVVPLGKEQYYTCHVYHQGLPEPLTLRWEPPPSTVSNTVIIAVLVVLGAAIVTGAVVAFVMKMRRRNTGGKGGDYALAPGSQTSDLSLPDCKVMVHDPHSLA

HLA A*0201 = HLA A*0201 (Homo sapiens, UniProt P04439, D140Y/D185E/D98H/E176V/E277Q/G131W/G231S/I119V/I121R/I166T/I218V/L300P/L318F/N151K/N90K/P208A/P217A/Q86G/Q94H/R138H/R169H/T345S); details: positional scanning combinatorial 9-mer library; normalized to 1.0 for the best residue at each position

| Sequence | Normalized average relative binding affinity (ARB), HLA A*3001 (HLA A*3001) | Normalized average relative binding affinity (ARB), HLA A*3201 (HLA A*3201) | Normalized average relative binding affinity (ARB), HLA A*6802 (HLA A*6802) | Normalized average relative binding affinity (ARB), HLA B*0702 (HLA B*0702) | Normalized average relative binding affinity (ARB), HLA B*0801 (HLA B*0801) | Normalized average relative binding affinity (ARB), HLA B*1501 (HLA B*1501) | Normalized average relative binding affinity (ARB), HLA B*1503 (HLA B*1503) | Normalized average relative binding affinity (ARB), HLA B*2705 (HLA B*2705) | Normalized average relative binding affinity (ARB), HLA B*3501 (HLA B*3501) | Normalized average relative binding affinity (ARB), HLA B*5101 (HLA B*5101) | Normalized average relative binding affinity (ARB), HLA B*5301 (HLA B*5301) | Normalized average relative binding affinity (ARB), HLA B*5401 (HLA B*5401) | Normalized average relative binding affinity (ARB), HLA B*5801 (HLA B*5801) | Normalized average relative binding affinity (ARB), HLA B*5802 (HLA B*5802) | Normalized average relative binding affinity (ARB), H-2 Db (H-2 D^b) | Normalized average relative binding affinity (ARB), H-2 Dd (H-2 D^d) | Normalized average relative binding affinity (ARB), H-2 Kk (H-2 K^k) | Normalized average relative binding affinity (ARB), HLA A*0201 (HLA A*0201) |
| --- | --- | --- | --- | --- | --- | --- | --- | --- | --- | --- | --- | --- | --- | --- | --- | --- | --- | --- |
| XXCXXXXXX [3064.0042] | 0.0048 | 0.32 | 0.071 | 0.047 | 0.020 | 0.35 | 0.048 | 0.14 | 0.074 | 0.24 | 0.0065 | 0.015 | 0.11 | 0.37 | 0.098 | 0.0028 | 0.15 | 0.22 |
| XXDXXXXXX [3064.0043] | 0.0018 | 0.085 | 0.025 | 0.031 | 0.015 | 0.039 | 0.032 | 0.020 | 0.11 | 0.070 | 0.096 | 0.0033 | 0.11 | 0.047 | 0.022 | 0.012 | 0.059 | 0.46 |
| XXEXXXXXX [3064.0044] | 0.0031 | 0.14 | 0.046 | 0.052 | 0.034 | 0.040 | 0.044 | 0.071 | 0.073 | 0.070 | 0.031 | 0.0049 | 0.095 | 0.049 | 0.032 | 0.0030 | 0.27 | 0.037 |
